Measurements from patent publication US20130059314A1, “FRET-BASED METHOD FOR THE DETERMINATION OF PROTEIN PHOSPHATASE AND KINASE ACTIVITY” (priority 2010, published 2013).

Legend:
[1] = system: PP1/2A; experiment: FRET-based phosphatase activity assay in PP1/2A buffer; type: biochemical; details: FIG. 9
Excerpt: FIG. 8 is a graph showing that in the PP1A/2A buffer, a linear range of phosphatase activity not attributable to calcineurin activity was detected.
(§1) Okadaic acid is a known inhibitor if PP1/2A.

[2] = system: Calcineurin; experiment: FRET-based calcineurin activity assay with okadaic acid; type: biochemical; details: similar range of okadaic acid; FIG. 9
Experimental: as §1
2. Calcineurin activity was assessed by mixing equal parts lysate, RII or other peptide sample), and reacted for 5-10 mins at 30° C. Control reactions were included that contained known varying amounts of purified calcineurin to calculate a standard curve for each plate.
3. To stop the reaction, a solution of 10% acetyl nitrile and 0.01% acetic acid solution was added. This step was essential to reduce the pH of the reaction to below 3.5 and enable the binding of the titanium oxide beads to the target peptide.
4. FLUOR-titanium oxide beads were added with gentle shaking for 5 mins. Phosphorylated-peptides were retained on the beads producing a “shifted” TAMRA signal while non-phosphorylated peptides were unbound.
5. Reactions were neutralized with 0.35% ammonium hydroxide to return the pH to greater than 7 and the fluorescence of each sample will be read at 450 nm excitation/580 nm emission.
6. Calcineurin activity was then determined by calculating the slope and y-intercept of the standard curve and then extrapolating calcineurin activity from the fluorescence intensity.

C=C1[C@@H](O)[C@@H]2O[C@]3(CC[C@H](/C=C/[C@@H](C)[C@@H]4CC(C)=C[C@@]5(O[C@H](C[C@@](C)(O)C(=O)O)CC[C@H]5O)O4)O3)CC[C@H]2O[C@@H]1[C@@H](O)C[C@H](C)[C@H]1O[C@@]2(CCCCO2)CC[C@H]1C [okadaic acid]
phosphatase activity detected in the PP1/2A buffer, inhibition [1]: sensitive to inhibition with okadaic acid, in a dose-dependent fashion
calcineurin activity, sensitivity to okadaic acid [2]: not sensitive to further reduction
